In patent US20240228488A1 (TAKEDA PHARMACEUTICAL COMPANY LIMITED, priority 2021, published 2024):

What was measured:
[1] = target: human activated kallikrein enzyme (Homo sapiens, UniProt P03952); assay: Plasma kallikrein inhibition, fluorogenic PFR-AMC substrate, 500 pM activated kallikrein format; assay type: biochemical; conditions: 500 pM activated kallikrein, 300 uM PFR-AMC, 30 min preincubation, 10 min reaction; read-out: Primary Dose Response Assay: Average EC50
Procedure, shortened: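 Fluorescence (ex 380/em 460 nm) is read after 10 min of 300 uM PFR-AMC turnover by 500 pM enzyme at RT. Compounds sit with enzyme for 30 min beforehand. Buffer is Tris (pH 7.5) with EDTA, NaCl, PEG-400 and Triton X-100; EC50 values are banded.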

[2] = target: T1, plasma kallikrein (Homo sapiens, UniProt P03952); assay: Neat human plasma assay, FXIIa contact pathway-activated, PFR-AMC substrate; assay type: biochemical; conditions: citrated human plasma 78% final, 10 nM human FXIIa, 100 μM PFR-AMC; read-out: Human Plasma Assay: IC90
T1 construct: from tissue
Procedure, shortened: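 Compound inhibition of plasma kallikrein measured as PFR-AMC (100 μM) cleavage rate over 5 min at room temperature in 78% citrated human plasma activated with 10 nM FXIIa (Tris pH 7.5 buffer). IC50/IC90 from 4-parameter fit of rate versus inhibitor concentration.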

human activated kallikrein enzyme, sequence (P03952 391-638 limits assumed): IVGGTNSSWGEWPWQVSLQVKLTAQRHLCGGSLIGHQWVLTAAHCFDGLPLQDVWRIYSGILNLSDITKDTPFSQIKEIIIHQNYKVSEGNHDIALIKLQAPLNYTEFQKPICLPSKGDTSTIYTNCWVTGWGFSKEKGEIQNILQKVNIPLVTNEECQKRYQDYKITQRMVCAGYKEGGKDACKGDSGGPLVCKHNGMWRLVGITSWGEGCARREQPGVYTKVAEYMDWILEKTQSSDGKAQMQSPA
human activated kallikrein enzyme, sequence (P03952 20-390 partner limits assumed): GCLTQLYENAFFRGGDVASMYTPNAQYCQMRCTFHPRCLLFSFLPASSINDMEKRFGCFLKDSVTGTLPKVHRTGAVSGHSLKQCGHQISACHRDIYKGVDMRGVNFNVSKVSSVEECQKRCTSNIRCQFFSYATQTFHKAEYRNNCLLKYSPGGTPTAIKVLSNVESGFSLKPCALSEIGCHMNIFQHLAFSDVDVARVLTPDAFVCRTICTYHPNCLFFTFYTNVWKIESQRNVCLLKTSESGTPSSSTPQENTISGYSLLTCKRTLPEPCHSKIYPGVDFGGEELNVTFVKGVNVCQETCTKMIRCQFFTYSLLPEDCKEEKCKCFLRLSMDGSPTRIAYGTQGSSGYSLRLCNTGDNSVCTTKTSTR
T1 sequence (P03952 391-638 limits assumed): as the sequence (P03952 391-638 limits assumed) above
T1 sequence (P03952 20-390 partner limits assumed): as the sequence (P03952 20-390 partner limits assumed) above

| Compound | EC50 [1] | IC90 [2] |
| --- | --- | --- |
| Cc1ccnc([C@H]2C[C@@H]2C(=O)Nc2cc(N(C)Cc3cn4cc(C5CC5)cc(N5CC(=O)N(CCOCc6ccccc6)C5=O)c4n3)cc(C3CC3)n2)n1 [Example I-636, (1S,2S)—N-(4-(((8-(3-(2-(benzyloxy)ethyl)-2,4-dioxoimidazolidin-1-yl)-6-cyclopropylimidazo[1,2-a]pyridin-2-yl)methyl)(methyl)amino)-6-cyclopropylpyridin-2-yl)-2-(4-methylpyrimidin-2-yl)cyclopropane-1-carboxamide] | 1 to 10 nM | 1500 to 10000 nM |
| N#Cc1ccc(Cl)cc1[C@@H]1C[C@H]1C(=O)Nc1cc(NCc2cn3cc(C4CC4)cc(CO)c3n2)ccn1 (racemic) [Example 100, rac-(1S*,2S*)-2-(5-chloro-2-cyanophenyl)-N-(4-(((6-cyclopropyl-8-(hydroxymethyl)imidazo[1,2-a]pyridin-2-yl)methyl)amino)pyridin-2-yl)cyclopropane-1-carboxamide] | < 1 nM | 10000 to 48000 nM |
| O=C(Nc1cc(NCc2cn3cc(C4CC4)cc(C4(F)COC4)c3n2)ccn1)[C@H]1C[C@@H]1c1cccc(Cl)c1 (racemic) [Example 294, rac-(1S*,2S*)-2-(3-chlorophenyl)-N-(4-(((6-cyclopropyl-8-(3-fluorooxetan-3-yl)imidazo[1,2-a]pyridin-2-yl)methyl)amino)pyridin-2-yl)cyclopropane-1-carboxamide] | < 1 nM | 10000 to 48000 nM |
| Cc1ccnc([C@H]2C[C@@H]2C(=O)Nc2cc(SCc3cn4cc(C5CC5)cc(N5CC(=O)N(C)C5=O)c4n3)nc(C)n2)n1 [Example I-638, (1S,2S)—N-(6-(((6-cyclopropyl-8-(3-methyl-2,4-dioxoimidazolidin-1-yl)imidazo[1,2-a]pyridin-2-yl)methyl)thio)-2-methylpyrimidin-4-yl)-2-(4-methylpyrimidin-2-yl)cyclopropane-1-carboxamide] | < 1 nM | 400 to 1500 nM |
| O=C(Nc1cc(NCc2cn3cc(C4CC4)ccc3n2)cc(CCN2CCOCC2)n1)[C@H]1C[C@@H]1c1cccc(Cl)c1 [Example 341, (1S,2S)-2-(3-chlorophenyl)-N-(4-(((6-cyclopropylimidazo[1,2-a]pyridin-2-yl)methyl)amino)-6-(2-morpholinoethyl)pyridin-2-yl)cyclopropane-1-carboxamide] | 1 to 10 nM | 1500 to 10000 nM |
| Cc1cc(NCc2cn3cc(C4CC4)ccc3n2)cc(NC(=O)[C@H]2C[C@@H]2c2cccc(Cl)c2)n1 [Example 338, (1S,2S)-2-(3-chlorophenyl)-N-(4-(((6-cyclopropylimidazo[1,2-a]pyridin-2-yl)methyl)amino)-6-methylpyridin-2-yl)cyclopropane-1-carboxamide] | < 1 nM | 1500 to 10000 nM |
| CN1CCN(c2cc(C3CC3)cn3cc(CNc4nccc(NC(=O)[C@H]5C[C@@H]5c5cccc(Cl)c5)n4)nc23)CC1 [Example 613, (1S,2S)-2-(3-chlorophenyl)-N-(2-(((6-cyclopropyl-8-(4-methylpiperazin-1-yl)imidazo[1,2-a]pyridin-2-yl)methyl)amino)pyrimidin-4-yl)cyclopropane-1-carboxamide] | 1 to 10 nM | 400 to 1500 nM |
| Cc1cc(N2CC(=O)N(C)C2=O)c2nc([C@@H](C)Nc3cc(NC(=O)[C@H]4C[C@@H]4c4nccc(C)n4)nc(C)n3)cn2c1 [Example 434, (1S,2S)-N-(2-methyl-6-(((R)-1-(6-methyl-8-(3-methyl-2,4-dioxoimidazolidin-1-yl)imidazo[1,2-a]pyridin-2-yl)ethyl)amino)pyrimidin-4-yl)-2-(4-methylpyrimidin-2-yl)cyclopropane-1-carboxamide] | < 1 nM | < 400 nM |
| O=C(Nc1cc(NCc2cn3cc(C4CC4)cc(C(=O)N4CCNCC4)c3n2)ncn1)[C@H]1C[C@@H]1c1cccc(Cl)c1 [Example 304, (1S,2S)-2-(3-chlorophenyl)-N-(6-(((6-cyclopropyl-8-(piperazine-1-carbonyl)imidazo[1,2-a]pyridin-2-yl)methyl)amino)pyrimidin-4-yl)cyclopropane-1-carboxamide] | < 1 nM | < 400 nM |
| COC(=O)CCc1cc(C2CC2)cn2cc(CNc3ccnc(NC(=O)[C@H]4C[C@@H]4c4cccc(Cl)c4)c3)nc12 [Example I-239, methyl 3-(2-(((2-((1S,2S)-2-(3-chlorophenyl)cyclopropane-1-carboxamido)pyridin-4-yl)amino)methyl)-6-cyclopropylimidazo[1,2-a]pyridin-8-yl)propanoate] | < 1 nM | 1500 to 10000 nM |
| CN1CCN(c2cc(C3CC3)cn3cc(CNc4cc(NC(=O)[C@H]5C[C@@H]5c5cccc(Cl)c5)ncn4)nc23)CC1CO (stereo partly drawn) [Example I-7, (1S,2S)-2-(3-chlorophenyl)-N-(6-(((6-cyclopropyl-8-(3-(hydroxymethyl)-4-methylpiperazin-1-yl)imidazo[1,2-a]pyridin-2-yl)methyl)amino)pyrimidin-4-yl)cyclopropane-1-carboxamide] | 1 to 10 nM | 400 to 1500 nM |
| Cc1ccnc([C@H]2C[C@@H]2C(=O)Nc2nc(NCc3cn4cc(C5CC5)cc(N5CC(=O)N(C)C5=O)c4n3)cc(C3CC3)n2)n1 (racemic) [Example 539, rac-(1S*,2S*)—N-(4-cyclopropyl-6-(((6-cyclopropyl-8-(3-methyl-2,4-dioxoimidazolidin-1-yl)imidazo[1,2-a]pyridin-2-yl)methyl)amino)pyrimidin-2-yl)-2-(4-methylpyrimidin-2-yl)cyclopropane-1-carboxamide] | < 1 nM | 1500 to 10000 nM |
| CC(=O)Nc1cc(C2CC2)cn2cc(CNc3ccnc(NC(=O)[C@H]4C[C@@H]4c4cccc(Cl)c4)c3)nc12 [Example 142, (1S,2S)-N-(4-(((8-acetamido-6-cyclopropylimidazo[1,2-a]pyridin-2-yl)methyl)amino)pyridin-2-yl)-2-(3-chlorophenyl)cyclopropane-1-carboxamide] | < 1 nM | 1500 to 10000 nM |
| Cc1csc([C@H]2C[C@@H]2C(=O)Nc2cc(NCc3cn4cc(C5CC5)cc(N5CC(=O)N(C)C5=O)c4n3)ncn2)n1 (racemic) [Example 446, rac-(1S*,2S*)—N-(6-(((6-cyclopropyl-8-(3-methyl-2,4-dioxoimidazolidin-1-yl)imidazo[1,2-a]pyridin-2-yl)methyl)amino)pyrimidin-4-yl)-2-(4-methylthiazol-2-yl)cyclopropane-1-carboxamide] | < 1 nM | 400 to 1500 nM |
| Cc1nccc([C@H]2C[C@@H]2C(=O)Nc2cc(NCc3cn4cc(C5CC5)cc(N5CC(=O)N(C)C5=O)c4n3)ncn2)n1 (racemic) [Example 499, rac-(1S*,2S*)-N-(6-(((6-cyclopropyl-8-(3-methyl-2,4-dioxoimidazolidin-1-yl)imidazo[1,2-a]pyridin-2-yl)methyl)amino)pyrimidin-4-yl)-2-(2-methylpyrimidin-4-yl)cyclopropane-1-carboxamide] | 1 to 10 nM | 400 to 1500 nM |

The remaining lines, values ahead:

| EC50 [1] | IC90 [2] | Compound |
| --- | --- | --- |
| 1 to 10 nM | 400 to 1500 nM | O=C(Nc1cc(NCc2cn3cc(C4CC4)cc(N4CCN(C5COC5)CC4)c3n2)ncn1)[C@H]1C[C@@H]1c1cccc(Cl)c1 [Example I-202, (1S,2S)-2-(3-chlorophenyl)-N-(6-(((6-cyclopropyl-8-(4-(oxetan-3-yl)piperazin-1-yl)imidazo[1,2-a]pyridin-2-yl)methyl)amino)pyrimidin-4-yl)cyclopropane-1-carboxamide] |
| 1 to 10 nM | 1500 to 10000 nM | Cc1ccnc([C@H]2C[C@@H]2C(=O)Nc2cc(N(C)C(C)c3cn4cc(C5CC5)cc(N5CC(=O)N(C)C5=O)c4n3)ncn2)n1 (stereo partly drawn) [Example 369, (1S,2S)-N-(6-((1-(6-cyclopropyl-8-(3-methyl-2,4-dioxoimidazolidin-1-yl)imidazo[1,2-a]pyridin-2-yl)ethyl)(methyl)amino)pyrimidin-4-yl)-2-(4-methylpyrimidin-2-yl)cyclopropane-1-carboxamide] |
| 1 to 10 nM | 1500 to 10000 nM | O=C(Nc1cc(NCc2cn3cc(C4CC4)cc(N4CC(=O)N(CC(F)(F)F)C4=O)c3n2)ccn1)[C@H]1C[C@@H]1c1cccc(Cl)c1 [Example 512, (1S,2S)-2-(3-chlorophenyl)-N-(4-(((6-cyclopropyl-8-(2,4-dioxo-3-(2,2,2-trifluoroethyl)imidazolidin-1-yl)imidazo[1,2-a]pyridin-2-yl)methyl)amino)pyridin-2-yl)cyclopropane-1-carboxamide] |
| < 1 nM | 1500 to 10000 nM | Cc1ccnc([C@H]2C[C@@H]2C(=O)Nc2cc(OCc3cn4cc(C5CC5)ccc4n3)cnn2)n1 [Example 568, (1S,2S)-N-(5-((6-cyclopropylimidazo[1,2-a]pyridin-2-yl)methoxy)pyridazin-3-yl)-2-(4-methylpyrimidin-2-yl)cyclopropane-1-carboxamide] |
| < 1 nM | < 400 nM | [2H]C([2H])(Nc1cc(NC(=O)[C@H]2C[C@@H]2c2nccc(C)n2)ncn1)c1cn2cc(C3CC3)cc(N3CC(=O)N(C)C3=O)c2n1 (racemic) [Example 391, rac-(1S*,2S*)-N-(6-(((6-cyclopropyl-8-(3-methyl-2,4-dioxoimidazolidin-1-yl)imidazo[1,2-a]pyridin-2-yl)methyl-d2)amino)pyrimidin-4-yl)-2-(4-methylpyrimidin-2-yl)cyclopropane-1-carboxamide] |
| < 1 nM | 400 to 1500 nM | Cc1ccnc([C@H]2C[C@@H]2C(=O)Nc2cc(NC(C)c3cn4cc(C5CC5)cc(N5CC(=O)N(C)C5=O)c4n3)nc(C)n2)n1 (stereo partly drawn) [Example 454, (1S,2S)—N-(6-((1-(6-cyclopropyl-8-(3-methyl-2,4-dioxoimidazolidin-1-yl)imidazo[1,2-a]pyridin-2-yl)ethyl)amino)-2-methylpyrimidin-4-yl)-2-(4-methylpyrimidin-2-yl)cyclopropane-1-carboxamide] |
